What all share (format): cell-based
The target in one experiment is T1, human PPARα (Homo sapiens, UniProt Q07869).
T1 construct: expressed in transfected cells; host or cells: Hepa1c1c7 cells (transient transfection, Superfect)
T1 sequence (Q07869 1-468): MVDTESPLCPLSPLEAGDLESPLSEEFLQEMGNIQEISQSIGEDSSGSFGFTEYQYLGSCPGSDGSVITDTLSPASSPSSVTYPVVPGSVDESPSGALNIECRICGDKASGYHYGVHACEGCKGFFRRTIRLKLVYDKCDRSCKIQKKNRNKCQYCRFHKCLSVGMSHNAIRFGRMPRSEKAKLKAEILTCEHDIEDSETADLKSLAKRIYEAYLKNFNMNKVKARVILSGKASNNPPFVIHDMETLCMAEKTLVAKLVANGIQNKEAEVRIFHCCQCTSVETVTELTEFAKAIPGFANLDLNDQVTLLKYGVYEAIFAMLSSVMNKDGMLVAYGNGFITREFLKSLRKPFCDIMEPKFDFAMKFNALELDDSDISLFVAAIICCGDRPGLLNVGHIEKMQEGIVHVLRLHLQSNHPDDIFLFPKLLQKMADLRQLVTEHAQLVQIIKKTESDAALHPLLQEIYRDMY
The experiment in a line: Cell transactivation assay in transiently transfected Hepa1c1c7 cells, PPRE-Lac Z reporter. The settings on record: concentration of 10 μM. The protocol: (§1) (B) Cell Transactivation Assays
(§2) Assays were performed by transient transfection of Hepa1c1c7 cells in which compounds of the invention were tested for their ability to activate human PPARα, δ and γ isoforms. Cells were co-transfected with either PPARa, d and g expression vectors (containing the entire ORF sequence) and a reporter construct carrying a PPRE linked Lac Z construct. Cells were transfected using Superfect and cultured in T75 flasks overnight, then plated into 96 well plates and left for 5 hours before the addition of test compound. After a further 24 hours PPAR activation was quantitated indirectly as β-Galactosidase activity by hydrolysis of chlorophenol red-β-D-galactopyranoside (CPRG), measured spectrophotometrically at 580 nm. Compounds of the invention were active in this assay.
(§3) According to their activity in transactivation assays and by comparison to the selective PPARγ agonist, BRL 49653; compounds of the invention were categorised as either having pharmacological properties consistent with: selective PPARγ agonists, partial agonists or non-selective PPAR α/γ agonists.

Another experiment has as its target T2, human PPARγ (Homo sapiens, UniProt P37231).
T2 construct: expressed in transfected cells; host or cells: Hepa1c1c7 cells (transient transfection, Superfect)
T2 sequence (P37231 1-505): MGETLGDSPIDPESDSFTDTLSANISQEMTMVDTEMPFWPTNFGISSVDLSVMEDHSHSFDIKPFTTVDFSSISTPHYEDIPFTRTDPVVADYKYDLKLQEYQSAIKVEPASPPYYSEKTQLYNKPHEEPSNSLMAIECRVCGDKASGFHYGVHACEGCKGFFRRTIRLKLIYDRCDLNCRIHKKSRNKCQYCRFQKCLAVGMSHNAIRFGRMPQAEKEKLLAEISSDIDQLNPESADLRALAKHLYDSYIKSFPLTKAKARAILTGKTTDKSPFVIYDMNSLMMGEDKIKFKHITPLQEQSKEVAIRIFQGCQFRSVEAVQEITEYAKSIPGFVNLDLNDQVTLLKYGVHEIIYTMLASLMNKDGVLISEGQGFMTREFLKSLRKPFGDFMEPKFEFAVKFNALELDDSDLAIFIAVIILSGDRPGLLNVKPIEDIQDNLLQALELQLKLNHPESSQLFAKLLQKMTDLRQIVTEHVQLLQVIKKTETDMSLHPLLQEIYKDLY
The experiment is described as above. The settings on record: concentration of 10 μM. The protocol: as §1, §2, §3

The subject of the next experiment is 3T3L1 preadipocytes. Nature of the experiment: Adipocyte differentiation assay (glycerophosphate dehydrogenase activity). Conditions: concentration of 10 μM, 3T3L1 cells, day 7; positive control BRL 49653. The protocol: Adipocyte Differentiation Assay
3T3L1 preadipocytes were grown in DMEM containing 10% NBCS and 1 day post-confluence cells were cultured in differentiation medium (DMEM containing 5% FCS, 1 μg/ml insulin, 0.25 μM dexamethasone and 0.5 mM IBMX) in the presence or absence of compounds. BRL 49653 was used as the positive control and the medium replenished after 3 days. On day 7, cells were lysed and glycerophosphate dehydrogenase activity measured spectrophotometrically at 340 nm.

1 molecule from US6787556B1, “Benzoic acid derivatives for the treatment of diabetes mellitus” (AstraZeneca AB, priority 1999, dated 2004) can be followed below.

With `COc1cc(-c2nnn(Cc3ccccc3C(=O)O)n2)ccc1CN(C)C(=O)COc1ccc(Cl)cc1` [Compound 46], the α transactivation on human PPARα came to 25%. Moreover, the γ transactivation on human PPARγ worked out at 64%. In addition, the “activity as compared to the control (glycerophosphate dehydrogenase activity)” value with 3T3L1 preadipocytes was determined as 79%.
